Test results: the supplement of paper PMC11061612

What was measured:
[1] = tested on: JHH-1 (Hepatocellular Carcinoma); assay: Bliss excess, mean over the matrix (fraction); higher = more synergy
How it was run: (§1)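 Bliss excess equals the observed combination effect minus the expected value EA + EB − EA·EB, where EA and EB are the effects of each agent alone. Combination Emax is the second-highest inhibition within the matrix. Inhibition was scaled from CellTiter-Glo 2.0 luminescence, with 0 set by vehicle wells and 1 by blank wells, after 72 hours of two-drug dosing of cells plated in 1536-well plates.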

[2] = tested on: OVTOKO (Ovarian Carcinoma); assay: as above
How it was run: as §1

[3] = tested on: AsPC-1 (Pancreatic Carcinoma); assay: combination Emax (second highest fraction inhibited in the dose matrix, 72 h); higher = more inhibition; extreme values may be limits of the assay
How it was run: as §1

[4] = tested on: Becker (Low Grade Glioma); assay: as above
How it was run: as §1

CHL-1 (Melanoma) = assay: as above
How it was run: as §1

[5] = tested on: COLO-684 (Endometrial Carcinoma); assay: as above
How it was run: as §1

[6] = tested on: Calu-6 (Non-Small Cell Lung Carcinoma); assay: as above
How it was run: as §1

[7] = tested on: EB-3 (Burkitt's Lymphoma); assay: as above
How it was run: as §1

[8] = tested on: FLO-1 (Esophageal Adenocarcinoma); assay: as above
How it was run: as §1

[9] = tested on: HTC-C3 (Thyroid Gland Carcinoma); assay: as above
How it was run: as §1

[10] = tested on: JHH-1 (Hepatocellular Carcinoma); assay: as above
How it was run: as §1

KYM-1 (Rhabdomyosarcoma) = assay: as above
How it was run: as §1

[11] = tested on: KYSE-70 (Esophageal Squamous Cell Carcinoma); assay: as above
How it was run: as §1

[12] = tested on: NCI-H1155 (Non-Small Cell Lung Carcinoma); assay: as above
How it was run: as §1

[13] = tested on: NCI-H1563 (Lung Adenocarcinoma); assay: as above
How it was run: as §1

[14] = tested on: NCI-H1623 (Lung Adenocarcinoma); assay: as above
How it was run: as §1

[15] = tested on: NCI-H1755 (Lung Adenocarcinoma); assay: as above
How it was run: as §1

[16] = tested on: OCI-AML5 (Acute Myeloid Leukemia); assay: as above
How it was run: as §1

[17] = tested on: RMG-I (Ovarian Carcinoma); assay: as above
How it was run: as §1

[18] = tested on: RPMI-8866 (Chronic Myelogenous Leukemia); assay: as above
How it was run: as §1

Structure (SMILES) | Bliss excess [1] | Bliss excess [2] | combination Emax [3] | combination Emax [4] | combination Emax (CHL-1 (Melanoma)) | combination Emax [5] | combination Emax [6] | combination Emax [7] | combination Emax [8] | combination Emax [9] | combination Emax [10] | combination Emax (KYM-1 (Rhabdomyosarcoma)) | combination Emax [11] | combination Emax [12] | combination Emax [13] | combination Emax [14] | combination Emax [15] | combination Emax [16] | combination Emax [17] | combination Emax [18]
COc1nnc2ccc(N3CCC(c4ccc(OCCN5CCN(C)C(=O)[C@H]5C)cc4)CC3)nn12 [AZD5153] + Cc1c2c(nn1C)CSCc1cc(n(C)n1)CSc1cc(c3ccccc3c1)OCCCc1c(C(=O)O)n(C)c3c-2c(Cl)ccc13 [AZD5991] (first compound max 1 µM, 7x7, partner max 1 µM) | 0.106 | -0.0536 | 0.258 | 0.484 | 0.985 | 0.67 | 0.24 | 0.822 | 0.717 | 0.745 | 0.906 | 1 | 0.355 | 0.646 | 0.835 | 1 | 0.446 | 0.997 | 0.58 | 0.857
COc1nnc2ccc(N3CCC(c4ccc(OCCN5CCN(C)C(=O)[C@H]5C)cc4)CC3)nn12 [AZD5153] + Cn1cnc2c(F)c(Nc3ccc(Br)cc3Cl)c(C(=O)NOCCO)cc21 [Selumetinib] (first compound max 1 µM, 7x7, partner max 10 µM) | 0.0139 | -0.0591 | 0.595 | 0.388 | 0.666 | 0.549 | 0.854 | 0.706 | 0.635 | 0.804 | 0.693 | 0.972 | 0.424 | 0.686 | 0.465 | 0.706 | 0.564 | 1 | 0.571 | 0.805
Cc1c2c(nn1C)CSCc1cc(n(C)n1)CSc1cc(c3ccccc3c1)OCCCc1c(C(=O)O)n(C)c3c-2c(Cl)ccc13 [AZD5991] + C1CN(CCC1(C(=O)N[C@@H](CCO)C2=CC=C(C=C2)Cl)N)C3=NC=NC4=C3C=CN4 [Capivasertib] (first compound max 1 µM, 7x7, partner max 3 µM) | 0.0258 | -0.0287 | 0.161 | 0.308 | 0.275 | 0.599 | 0.192 | 0.299 | 0.347 | 0.179 | 0.373 | 0.466 | 0.246 | 0.525 | 0.774 | 1 | 0.338 | 1 | 0.236 | 0.52
Cc1c2c(nn1C)CSCc1cc(n(C)n1)CSc1cc(c3ccccc3c1)OCCCc1c(C(=O)O)n(C)c3c-2c(Cl)ccc13 [AZD5991] + C=CCn1c(=O)c2cnc(Nc3ccc(N4CCN(C)CC4)cc3)nc2n1-c1cccc(C(C)(C)O)n1 [AZD1775] (first compound max 1 µM, partner max 1 µM) | 0.03 | 0.0474 | 0.369 | 0.224 | 0.745 | 0.739 | 0.77 | 0.732 | 0.891 | 0.454 | 0.721 | 0.755 | 0.655 | 0.786 | 0.595 | 0.959 | 0.79 | 1 | 0.375 | 0.978
Cc1c2c(nn1C)CSCc1cc(n(C)n1)CSc1cc(c3ccccc3c1)OCCCc1c(C(=O)O)n(C)c3c-2c(Cl)ccc13 [AZD5991] + CC1(C)CCC(CN2CCN(c3ccc(C(=O)NS(=O)(=O)c4ccc(NCC5CCOCC5)c([N+](=O)[O-])c4)c(Oc4cnc5[nH]ccc5c4)c3)CC2)=C(c2ccc(Cl)cc2)C1 [Venetoclax] (first compound max 1 µM, 7x7, partner max 1 µM) | 0.128 | -0.0027 | 0.12 | 0.124 | 0.968 | 0.244 | 0.215 | 0.145 | 0.382 | 0.147 | 0.963 | 0.592 | 0.103 | 0.379 | 0.768 | 0.905 | 0.212 | 1 | 0.421 | 0.438
Cc1c2c(nn1C)CSCc1cc(n(C)n1)CSc1cc(c3ccccc3c1)OCCCc1c(C(=O)O)n(C)c3c-2c(Cl)ccc13 [AZD5991] + CCN(CCO)CCCOc1ccc2c(Nc3cc(CC(=O)Nc4cccc(F)c4)[nH]n3)ncnc2c1 [AZD2811] (first compound max 1 µM, 7x7, partner max 1 µM) | 0.0603 | 0.0153 | 0.243 | 0.147 | 0.933 | 0.381 | 0.361 | 0.35 | 0.489 | 0.235 | 0.517 | 0.62 | 0.315 | 0.897 | 0.517 | 0.899 | 0.619 | 1 | 0.303 | 0.764
Cc1c2c(nn1C)CSCc1cc(n(C)n1)CSc1cc(c3ccccc3c1)OCCCc1c(C(=O)O)n(C)c3c-2c(Cl)ccc13 [AZD5991] + C[C@@H]1COCCN1C2=NC(=NC(=C2)C3(CC3)[S@](=N)(=O)C)C4=C5C=CNC5=NC=C4 [AZD6738] (first compound max 1 µM, 7x7, partner max 10 µM) | 0.106 | 0.0404 | 0.292 | 0.632 | 0.906 | 0.741 | 0.822 | 0.604 | 0.686 | 0.686 | 0.686 | 0.924 | 0.379 | 0.849 | 0.774 | 0.997 | 0.854 | 1 | 0.544 | 0.973
Cc1c2c(nn1C)CSCc1cc(n(C)n1)CSc1cc(c3ccccc3c1)OCCCc1c(C(=O)O)n(C)c3c-2c(Cl)ccc13 [AZD5991] + C[C@@H](Nc1cc(F)cc(F)c1)c1cc(C(=O)N(C)C)cc2c(=O)cc(N3CCOCC3)oc12 [AZD8186] (first compound max 1 µM, 7x7, partner max 3 µM) | 0.0056 | -0.0196 | 0.235 | 0.462 | 0.485 | 0.42 | 0.222 | 0.262 | 0.48 | 0.277 | 0.462 | 0.497 | 0.173 | 0.33 | 0.824 | 0.986 | 0.418 | 1 | 0.426 | 0.592
Cc1c2c(nn1C)CSCc1cc(n(C)n1)CSc1cc(c3ccccc3c1)OCCCc1c(C(=O)O)n(C)c3c-2c(Cl)ccc13 [AZD5991] + Cc1cc2ncnn2cc1Nc1ncc2c(n1)n(C1CCOCC1)c(=O)n2C [AZD7648] (first compound max 1 µM, 7x7, partner max 10 µM) | -0.0585 | -0.0238 | 0.246 | 0.177 | 0.346 | 0.315 | 0.29 | 0.456 | 0.489 | 0.245 | 0.35 | 0.265 | 0.159 | 0.257 | 0.701 | 0.952 | 0.418 | 1 | 0.344 | 0.533
Cc1c2c(nn1C)CSCc1cc(n(C)n1)CSc1cc(c3ccccc3c1)OCCCc1c(C(=O)O)n(C)c3c-2c(Cl)ccc13 [AZD5991] + Cn1cnc2c(F)c(Nc3ccc(Br)cc3Cl)c(C(=O)NOCCO)cc21 [Selumetinib] (first compound max 1 µM, 7x7, partner max 3 µM) | 0.0408 | -0.039 | 0.506 | 0.274 | 0.279 | 0.261 | 0.635 | 0.138 | 0.386 | 0.598 | 0.663 | 0.259 | 0.188 | 0.363 | 0.551 | 0.898 | 0.338 | 1 | 0.41 | 0.502
C[C@@H]1COCCN1c1cc(C2([S@](C)(=N)=O)CC2)nc(-c2ccnc3[nH]ccc23)n1 [AZD6738] + O=C(c1cc(Cc2n[nH]c(=O)c3ccccc23)ccc1F)N1CCN(C(=O)C2CC2)CC1 [Olaparib] (first compound max 10 µM, 7x7, partner max 10 µM) | -0.0206 | 0.0182 | 0.308 | 0.601 | 0.577 | 0.685 | 0.684 | 0.617 | 0.75 | 0.83 | 0.458 | 0.792 | 0.45 | 0.825 | 0.223 | 0.693 | 0.793 | 0.907 | 0.414 | 0.982
Cc1cc2ncnn2cc1Nc1ncc2c(n1)n(C1CCOCC1)c(=O)n2C [AZD7648] + C=CCn1c(=O)c2cnc(Nc3ccc(N4CCN(C)CC4)cc3)nc2n1-c1cccc(C(C)(C)O)n1 [AZD1775] (first compound max 10 µM, partner max 1 µM) | 0.001 | 0.0188 | 0.314 | 0.311 | 0.704 | 0.722 | 0.779 | 0.667 | 0.802 | 0.383 | 0.433 | 0.33 | 0.566 | 0.485 | 0.629 | 0.505 | 0.77 | 0.947 | 0.471 | 0.971
Cc1cc2ncnn2cc1Nc1ncc2c(n1)n(C1CCOCC1)c(=O)n2C [AZD7648] + CCN(CCO)CCCOc1ccc2c(Nc3cc(CC(=O)Nc4cccc(F)c4)[nH]n3)ncnc2c1 [AZD2811] (first compound max 10 µM, 7x7, partner max 1 µM) | -0.0287 | -0.0011 | 0.267 | 0.214 | 0.308 | 0.302 | 0.317 | 0.554 | 0.406 | 0.202 | 0.113 | 0.182 | 0.238 | 0.475 | 0.555 | 0.28 | 0.599 | 0.969 | 0.466 | 0.732
